Test results taken from patent US20090318492A1, “INDOLE COMPOUNDS HAVING C4-ACIDIC SUBSTITUENTS AND USE THEREOF AS PHOSPHOLIPASE-A2 INHIBITORS” (priority 2005, published 2009).

Key:
[1] = predicted to survive passage through the stomach; cited from earlier work
[2] = biological target: human PLA2 IB enzyme (Homo sapiens, UniProt P04054); settings: versus the human PLA2 IB enzyme; Singer, Ghomashchi et al. 2002; cited from earlier work
[3] = test system: C57BL/6 (wt) mice on high fat/high sucrose diabetogenic diet; assay: Example 5 in-vivo evaluation in mice on high fat/high sucrose diabetogenic diet; design: species or system mouse; settings: for body weight gain compared to wild-type control group: week 4 and week 10; for plasma levels of cholesterol / plasma levels of triglycerides: 10 weeks
Method: ILY-4001 (FIG. 2) was evaluated as a PLA2 IB inhibitor in a set of experiments using wild-type mice and genetically deficient PLA2 (−/−) mice (also referred to herein as PLA2 knock-out (KO) mice). In these experiments, wild-type and PLA2 (−/−) mice were maintained on a high fat/high sucrose diet, details of which are described below.
Briefly, four groups were set up, each having six mice. Three of the groups included six wild-type PLA2 (+/+) mice in each group (eighteen mice total), and one of the groups included six genetically deficient PLA2 (−/−) mice. One of the wild-type groups was used as a wild-type control group, and was not treated with ILY-4001. The other two wild-type groups were treated with ILY-4001-one group at a lower dose (indicated as “L” in Table 1) of 25 mg/kg/day, and the other at a higher dose (indicated as “H” in Table 1) of 90 mg/kg/day. The group comprising the PLA2 (−/−) mice was used as a positive control group.
The experimental protocol used in this study was as follows. The four groups of mice, including wild type and isogenic PLA2 (−/−) C57BL/J mice were acclimated for three days on a low fat/low carbohydrate diet. After the three day acclimation phase, the animals were fasted overnight and serum samples taken to establish baseline plasma cholesterol, triglyceride, and glucose levels, along with baseline body weight. The mice in each of the treatment groups were then fed a high fat/high sucrose diabetogenic diet (Research Diets D12331). 1000 g of the high fat/high sucrose D12331 diet was composed of casein (228 g), DL-methionine (2 g), maltodextrin 10 (170 g), sucrose (175 g), soybean oil (25 g), hydrogenated coconut oil (333.5 g), mineral mix S10001 (40 g), sodium bicarbonate (10.5 g), potassium citrate (4 g), vitamin mix V10001 (10 g), and choline bitartrate (2 g). This diet was supplemented with ILY-4001 treatments such that the average daily dose of the compound ingested by a 25 g mouse was: 0 mg/kg/day (wild-type control group and PLA2 (−/−) control group); 25 mg/kg/day (low-dose wild-type treatment group), or 90 mg/kg/day (high-dose wild-type treatment group). The animals were maintained on the high fat/high sucrose diet, with the designated ILY-4001 supplementation, for a period of ten weeks.
Body weight measurements were taken for all animals in all treatment and control groups at the beginning of the treatment period and at 4 weeks and 10 weeks after initiation of the study. (See Example 5A). Blood draws were also taken at the beginning of the treatment period (baseline) and at 4 weeks and 10 weeks after initiation of the study, in order to determine fasting glucose (See Example 5B). Cholesterol and triglyceride levels were determined from blood draws taken at the beginning of the treatment (baseline) and at ten weeks. (See Example 5C).

[4] = test system: Caco-2 cells; assay: Example 6B Caco-2 permeability study; assay type: in vitro ADME, human; settings: based on Caco-2 assays and pharmokinetic studies
Method: The culture medium was refreshed every 48 hours.
Papp=(dQ/dt)×(1/C0)×(1/A)

[5] = Example 6C pharmokinetic study of ILY-4001 (IV and oral); assay type: in vivo, mice; settings: 30 mg/kg oral
Description: This example characterized ILY-4001 [2-(3-(2-amino-2-oxoacetyl)-1-(biphenyl-2-ylmethyl)-2-methyl-1H-indol-4-yloxy)acetic acid], alternatively referred to herein as methyl indoxam, with respect to activity, as determined by IC50 assay (Example 6A), with respect to cell absorbtion, as determined by in-vitro Caco-2 assay (Example 6B) and with respect to bioavailability, as determined using in-vivo mice studies (Example 6C).
This example evaluated the bioavailability of ILY-4001 [2-(3-(2-amino-2-oxoacetyl)-1-(biphenyl-2-ylmethyl)-2-methyl-1H-indol-4-yloxy)acetic acid], alternatively referred to herein as methyl indoxam. […]
Bioavailability was calculated as a ratio of AUC-oral/AUC-intravenous (IV). To determine this ratio, a first set of subject animals were given a measured intravenous (IV) dose of ILY-4001, followed by a determination of ILY-4001 levels in the blood at various time points after administration (e.g., 5 minutes through 24 hours). Another second set of animals was similarly dosed using oral administration, with blood levels of ILY-4001 determined at various time points after administration (e.g., 30 minutes through 24 hours). The level of ILY-4001 in system to circulation were determined by generally accepted methods (for example as described in Evans, G., A Handbook of Bioanalysis and Drug Metabolism. Boca Raton, CRC Press (2004)). […]

[6] = biological target: mouse PLA2 IB enzyme (Mus musculus, UniProt Q9Z0Y2); settings: versus the mouse PLA2 IB enzyme; Singer, Ghomashchi et al. 2002; cited from earlier work
Chain of mouse PLA2 IB enzyme (Q9Z0Y2 23-146): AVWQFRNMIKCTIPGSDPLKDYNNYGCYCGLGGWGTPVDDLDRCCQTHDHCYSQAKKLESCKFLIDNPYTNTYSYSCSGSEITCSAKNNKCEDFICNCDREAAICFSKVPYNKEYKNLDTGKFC

Chain of human PLA2 IB enzyme (P04054 23-148): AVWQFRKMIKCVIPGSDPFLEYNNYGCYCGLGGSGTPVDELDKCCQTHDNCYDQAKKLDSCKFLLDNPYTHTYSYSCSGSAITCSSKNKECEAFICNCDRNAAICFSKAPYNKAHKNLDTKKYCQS

In the case of `Cc1c(C(=O)C(N)=O)c2c(OCC(=O)O)cccc2n1Cc1ccccc1-c1ccccc1` [ILY-4001, 2-(3-(2-amino-2-oxoacetyl)-1-(biphenyl-2-ylmethyl)-2-methyl-1H-indol-4-yloxy)acetic acid], the “stability at low pH” value [1] is given as “stable at low pH”, the IC50 [2] is given as roughly 200 nM and the “body weight gain compared to wild-type control group” value ([3]; 25 mg/kg/d in diet) is given as “significantly reduced body weight gains”. For the same molecule, the “body weight gain compared to wild-type control group” value ([3]; 90 mg/kg/d in diet) was “significantly reduced body weight gains”, the “plasma levels of cholesterol” value ([3]; high dose (90 mg/kg/day)) was “substantially reduced” and the “plasma levels of triglycerides” value ([3]; high dose (90 mg/kg/day)) was “substantially reduced”. For the same molecule, the “plasma levels of cholesterol” value ([3]; low dose (25 mg/kg/day)) was “substantially reduced”, the “plasma levels of triglycerides” value ([3]; low dose (25 mg/kg/day)) was “substantially reduced” and the fasting glucose levels ([3]; low dose (25 mg/kg/day), week four) was “moderately beneficial effect”. The fasting glucose levels ([3]; low dose (25 mg/kg/day), week ten) was “beneficial effect was not observed”, the “absorbtion from the GI lumen” value [4] was “relatively low absorbtion” and the “level of non-absorption from the GI tract into systemic circulation” value [5] was roughly 72%. The IC50 [6] was roughly 150 nM.
